Measured values taken from BindingDB's records for doi:10.1021/acs.jmedchem.9b01348 (West China Hospital of Sichuan University, 2019).

Experiment: Inhibition of JAK2 V617F mutant in BAF3 cells assessed as reduction in cell growth measured after 72 hrs by MTT assay

- IC50: 1060 nM
Structure (SMILES): C1=C/COCc2cc(ccc2OCCN2CCCC2)Nc2nccc(n2)-c2cccc(c2)COC/1 [ONX-0803]
